Reference: publication PMC9186362, “Design and biological evaluation of substituted 5,7-dihydro-6H-indolo[2,3-c]quinolin-6-one as novel selective Haspin inhibitors” (Journal of Enzyme Inhibition and Medicinal Chemistry, 2022)

Tests used:
[1] = tested on: U-2 OS, HCT116, MDA-MB231, SH-SY5Y and RPE-1 cell lines; experiment: Cell viability primary screen at 25 μM; type: cell-based, human; details: 48 h
Experimental: HCT116 cells were cultured in McCoy’s medium. SH-SY5Y, MDA-MB231 and U-2 OS cells were cultured in Dulbecco's modified Eagle's medium (DMEM) and hTERT RPE-1 cells in DMEM:F12 medium. All media were supplemented with 10% foetal calf serum and cells were cultured at 37 °C in a 5% CO2 humidified atmosphere.
Cell viability was then assessed using the CellTiter96 AQueous cell proliferation assay from Promega according to the manufacturer’s instructions. Each experiment was done in triplicate and EC50 were determined from the dose-response curves according to the signal given by the control (0.1% DMSO) set at 100% viability using Prism GraphPad software.

MAP2K1 (MEK1) = target: T1, MAP2K1 (MEK1) (Homo sapiens, UniProt Q02750); experiment: LanthaScreen Binding - Eu-anti-His; details: read-out: Percentage of inhibition
T1 construct: purchased Life Technologies (SelectScreen Whole Panel)
Experimental: (§1) We further evaluated the selectivity profile of compound 55 on a larger panel of kinases (SelectScreen Whole Panel, Life Technologies). The inhibition profile of 55, evaluated at 1 μM, is depicted on a dendrogram on Figure 3 where kinases inhibited by a minimum of 80% are shown. A full list of the kinases tested is shown on Table S1 in supplementary information.

[2] = target: T2, MAP2K6 (MKK6) S207E T211E (Homo sapiens, UniProt P52564, S207E/T211E); experiment: LanthaScreen Binding - Eu-anti-His; details: read-out: Percentage of inhibition
T2 construct: purchased Life Technologies (SelectScreen Whole Panel service)
Experimental: as §1

WNK3 = target: T3, WNK3 (Homo sapiens, UniProt Q9BYP7); experiment: LanthaScreen Binding - Eu-anti-His; details: read-out: Percentage of inhibition
T3 construct: purchased Life Technologies (SelectScreen Whole Panel)
Experimental: as §1

AMPK (A1/B2/G1) = target: T4, AMPK (A1/B2/G1) (Homo sapiens, UniProt Q13131); experiment: LanthaScreen Binding - Eu-anti-His; details: read-out: Percentage of inhibition
T4 construct: purchased Life Technologies (SelectScreen service)
Experimental: as §1

STK16 (PKL12) = target: T5, STK16 (PKL12) (Homo sapiens, UniProt O75716); experiment: LanthaScreen Binding - Eu-anti-His; details: read-out: Percentage of inhibition
T5 construct: purchased Life Technologies (SelectScreen Whole Panel)
Experimental: as §1

MAPK8 (JNK1) = target: T6, MAPK8 (JNK1) (Homo sapiens, UniProt P45983); experiment: LanthaScreen Binding - Eu-anti-His; details: read-out: Percentage of inhibition
T6 construct: purchased Life Technologies (SelectScreen Whole Panel service)
Experimental: as §1

RIPK2 = RIPK2 (Homo sapiens, UniProt O43353); experiment: LanthaScreen Binding - Eu-anti-His; details: read-out: Percentage of inhibition
Experimental: as §1

KIT T670E = KIT T670E (Homo sapiens, UniProt P10721, T670E); experiment: LanthaScreen Binding - Eu-anti-GST; details: read-out: Percentage of inhibition
Experimental: as §1

TESK2 = target: T7, TESK2 (Homo sapiens, UniProt Q96S53); experiment: LanthaScreen Binding - Eu-anti-GST; details: read-out: Percentage of inhibition
T7 construct: purchased Life Technologies
Experimental: as §1

STK17B (DRAK2) = target: T8, STK17B (DRAK2) (Homo sapiens, UniProt O94768); experiment: LanthaScreen Binding - Eu-anti-GST; details: ATP Km, read-out: Percentage of inhibition
T8 construct: purchased Life Technologies
Experimental: as §1

EPHA7 = target: T9, EPHA7 (Homo sapiens, UniProt Q15375); experiment: LanthaScreen Binding - Eu-anti-GST; details: read-out: Percentage of inhibition
T9 construct: purchased Life Technologies (SelectScreen service)
Experimental: as §1

TNK2 (ACK) = TNK2 (ACK) (Homo sapiens, UniProt Q07912); experiment: LanthaScreen Binding - Eu-anti-GST; details: read-out: Percentage of inhibition
Experimental: as §1

MAP4K3 (GLK) = MAP4K3 (GLK) (Homo sapiens, UniProt Q8IVH8); experiment: LanthaScreen Binding - Eu-anti-GST; details: read-out: Percentage of inhibition
Experimental: as §1

MAP3K10 (MLK2) = MAP3K10 (MLK2) (Homo sapiens, UniProt Q02779); experiment: LanthaScreen Binding - Eu-anti-GST; details: read-out: Percentage of inhibition
Experimental: as §1

AXL R499C = target: T10, AXL R499C (Homo sapiens, UniProt P30530, R499C); experiment: LanthaScreen Binding - Eu-anti-GST; details: read-out: Percentage of inhibition
T10 construct: purchased Life Technologies
Experimental: as §1

RIPK3 = target: T11, RIPK3 (Homo sapiens, UniProt Q9Y572); experiment: LanthaScreen Binding - Eu-anti-GST; details: read-out: Percentage of inhibition
T11 construct: purchased Life Technologies (SelectScreen Whole Panel)
Experimental: as §1

STK32C (YANK3) = target: T12, STK32C (YANK3) (Homo sapiens, UniProt Q86UX6); experiment: LanthaScreen Binding - Eu-anti-GST; details: read-out: Percentage of inhibition
T12 construct: purchased Life Technologies (SelectScreen Whole Panel)
Experimental: as §1

TAOK1 = target: T13, TAOK1 (Homo sapiens, UniProt Q7L7X3); experiment: LanthaScreen Binding - Eu-anti-GST; details: read-out: Percentage of inhibition
T13 construct: purchased Life Technologies
Experimental: as §1

KIT D816H = target: T14, KIT D816H (Homo sapiens, UniProt P10721, D816H); experiment: LanthaScreen Binding - Eu-anti-GST; details: read-out: Percentage of inhibition
T14 construct: purchased Life Technologies (SelectScreen service)
Experimental: as §1

ULK2 = target: T15, ULK2 (Homo sapiens, UniProt Q8IYT8); experiment: LanthaScreen Binding - Eu-anti-GST; details: read-out: Percentage of inhibition
T15 construct: purchased Life Technologies (SelectScreen service)
Experimental: as §1

LATS2 = target: T16, LATS2 (Homo sapiens, UniProt Q9NRM7); experiment: LanthaScreen Binding - Eu-anti-GST; details: read-out: Percentage of inhibition
T16 construct: purchased Life Technologies (SelectScreen service)
Experimental: as §1

ABL1 Q252H = target: T17, ABL1 Q252H (Homo sapiens, UniProt P00519, Q252H); experiment: LanthaScreen Binding - Eu-anti-GST; details: read-out: Percentage of inhibition
T17 construct: purchased Life Technologies (SelectScreen service)
Experimental: as §1

RET V804M = target: T18, RET V804M (Homo sapiens, UniProt P07949, V804M); experiment: LanthaScreen Binding - Eu-anti-GST; details: read-out: Percentage of inhibition
T18 construct: purchased Life Technologies (SelectScreen service)
Experimental: as §1

TNIK = TNIK (Homo sapiens, UniProt Q9UKE5); experiment: LanthaScreen Binding - Eu-anti-GST; details: read-out: Percentage of inhibition
Experimental: as §1

MAPK10 (JNK3) = target: T19, MAPK10 (JNK3) (Homo sapiens, UniProt P53779); experiment: LanthaScreen Binding - Eu-anti-GST; details: read-out: Percentage of inhibition
T19 construct: purchased Life Technologies
Experimental: as §1

MAP3K2 (MEKK2) = target: T20, MAP3K2 (MEKK2) (Homo sapiens, UniProt Q9Y2U5); experiment: LanthaScreen Binding - Eu-anti-GST; details: read-out: Percentage of inhibition
T20 construct: purchased Life Technologies
Experimental: as §1

ABL1 H396P = ABL1 H396P (Homo sapiens, UniProt P00519, H396P); experiment: LanthaScreen Binding - Eu-anti-GST; details: read-out: Percentage of inhibition
Experimental: as §1

KIT A829P = target: T21, KIT A829P (Homo sapiens, UniProt P10721, A829P); experiment: LanthaScreen Binding - Eu-anti-GST; details: read-out: Percentage of inhibition
T21 construct: purchased Life Technologies (SelectScreen service)
Experimental: as §1

ERN1 = target: T22, ERN1 (Homo sapiens, UniProt O75460); experiment: LanthaScreen Binding - Eu-anti-GST; details: read-out: Percentage of inhibition
T22 construct: purchased Life Technologies (SelectScreen Whole Panel service)
Experimental: as §1

TLK2 = target: T23, TLK2 (Homo sapiens, UniProt Q86UE8); experiment: LanthaScreen Binding - Eu-anti-GST; details: read-out: Percentage of inhibition
T23 construct: purchased Life Technologies (SelectScreen service)
Experimental: as §1

CAMK2G (CaMKII gamma) = target: T24, CAMK2G (CaMKII gamma) (Homo sapiens, UniProt Q13555); experiment: LanthaScreen Binding - Eu-anti-GST; details: read-out: Percentage of inhibition
T24 construct: purchased Life Technologies
Experimental: as §1

ZAK = target: T25, ZAK (Homo sapiens, UniProt Q9NYL2); experiment: LanthaScreen Binding - Eu-anti-GST; details: read-out: Percentage of inhibition
T25 construct: purchased Life Technologies
Experimental: as §1

MYLK (MLCK) = MYLK (MLCK) (Homo sapiens, UniProt Q15746); experiment: LanthaScreen Binding - Eu-anti-GST; details: read-out: Percentage of inhibition
Experimental: as §1

BRSK2 = target: T26, BRSK2 (Homo sapiens, UniProt Q8IWQ3); experiment: LanthaScreen Binding - Eu-anti-GST; details: read-out: Percentage of inhibition
T26 construct: purchased Life Technologies (SelectScreen Whole Panel service)
Experimental: as §1

T24 sequence (Q13555 whole entry): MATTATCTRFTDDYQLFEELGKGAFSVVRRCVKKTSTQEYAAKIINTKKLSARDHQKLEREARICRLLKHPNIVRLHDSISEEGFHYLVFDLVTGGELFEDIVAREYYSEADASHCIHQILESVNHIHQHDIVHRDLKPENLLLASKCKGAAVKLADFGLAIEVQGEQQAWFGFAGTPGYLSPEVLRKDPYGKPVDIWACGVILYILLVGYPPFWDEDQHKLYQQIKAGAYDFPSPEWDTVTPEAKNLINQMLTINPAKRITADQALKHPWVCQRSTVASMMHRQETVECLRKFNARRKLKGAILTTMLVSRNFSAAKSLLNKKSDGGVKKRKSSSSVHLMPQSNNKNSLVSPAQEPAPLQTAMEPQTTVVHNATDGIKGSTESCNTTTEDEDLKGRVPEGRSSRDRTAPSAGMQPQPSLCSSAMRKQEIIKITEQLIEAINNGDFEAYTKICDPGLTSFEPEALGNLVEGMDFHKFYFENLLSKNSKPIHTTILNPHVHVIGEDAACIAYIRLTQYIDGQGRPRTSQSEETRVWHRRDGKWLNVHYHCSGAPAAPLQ
Sequence of MAP3K10 (MLK2) (Q02779 whole entry): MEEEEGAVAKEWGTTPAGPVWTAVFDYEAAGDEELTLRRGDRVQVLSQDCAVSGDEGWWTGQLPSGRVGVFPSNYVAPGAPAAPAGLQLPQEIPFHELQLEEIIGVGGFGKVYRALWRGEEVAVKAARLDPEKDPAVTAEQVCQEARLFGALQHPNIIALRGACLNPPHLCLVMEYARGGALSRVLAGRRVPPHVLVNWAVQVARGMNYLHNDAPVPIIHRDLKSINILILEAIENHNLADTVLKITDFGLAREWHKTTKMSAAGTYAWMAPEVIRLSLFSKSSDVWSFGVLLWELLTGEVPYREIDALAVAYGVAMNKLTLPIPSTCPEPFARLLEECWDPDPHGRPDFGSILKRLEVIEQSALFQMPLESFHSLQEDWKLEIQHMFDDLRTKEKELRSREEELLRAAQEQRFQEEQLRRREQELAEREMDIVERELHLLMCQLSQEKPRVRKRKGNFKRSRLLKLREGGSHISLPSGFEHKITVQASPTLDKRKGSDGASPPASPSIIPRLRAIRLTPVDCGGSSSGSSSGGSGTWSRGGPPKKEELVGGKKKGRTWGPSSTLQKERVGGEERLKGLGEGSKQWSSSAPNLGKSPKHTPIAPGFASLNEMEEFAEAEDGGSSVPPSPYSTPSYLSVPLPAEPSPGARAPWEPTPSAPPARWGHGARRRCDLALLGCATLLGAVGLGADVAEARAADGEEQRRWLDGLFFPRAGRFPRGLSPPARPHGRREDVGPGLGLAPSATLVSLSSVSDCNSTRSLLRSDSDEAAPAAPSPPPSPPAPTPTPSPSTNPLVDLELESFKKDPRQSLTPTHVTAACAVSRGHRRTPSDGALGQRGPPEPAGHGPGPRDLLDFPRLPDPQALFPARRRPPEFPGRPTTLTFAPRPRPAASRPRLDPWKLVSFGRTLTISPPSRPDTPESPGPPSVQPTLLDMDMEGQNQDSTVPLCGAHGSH
Sequence of TNIK (Q9UKE5 whole entry): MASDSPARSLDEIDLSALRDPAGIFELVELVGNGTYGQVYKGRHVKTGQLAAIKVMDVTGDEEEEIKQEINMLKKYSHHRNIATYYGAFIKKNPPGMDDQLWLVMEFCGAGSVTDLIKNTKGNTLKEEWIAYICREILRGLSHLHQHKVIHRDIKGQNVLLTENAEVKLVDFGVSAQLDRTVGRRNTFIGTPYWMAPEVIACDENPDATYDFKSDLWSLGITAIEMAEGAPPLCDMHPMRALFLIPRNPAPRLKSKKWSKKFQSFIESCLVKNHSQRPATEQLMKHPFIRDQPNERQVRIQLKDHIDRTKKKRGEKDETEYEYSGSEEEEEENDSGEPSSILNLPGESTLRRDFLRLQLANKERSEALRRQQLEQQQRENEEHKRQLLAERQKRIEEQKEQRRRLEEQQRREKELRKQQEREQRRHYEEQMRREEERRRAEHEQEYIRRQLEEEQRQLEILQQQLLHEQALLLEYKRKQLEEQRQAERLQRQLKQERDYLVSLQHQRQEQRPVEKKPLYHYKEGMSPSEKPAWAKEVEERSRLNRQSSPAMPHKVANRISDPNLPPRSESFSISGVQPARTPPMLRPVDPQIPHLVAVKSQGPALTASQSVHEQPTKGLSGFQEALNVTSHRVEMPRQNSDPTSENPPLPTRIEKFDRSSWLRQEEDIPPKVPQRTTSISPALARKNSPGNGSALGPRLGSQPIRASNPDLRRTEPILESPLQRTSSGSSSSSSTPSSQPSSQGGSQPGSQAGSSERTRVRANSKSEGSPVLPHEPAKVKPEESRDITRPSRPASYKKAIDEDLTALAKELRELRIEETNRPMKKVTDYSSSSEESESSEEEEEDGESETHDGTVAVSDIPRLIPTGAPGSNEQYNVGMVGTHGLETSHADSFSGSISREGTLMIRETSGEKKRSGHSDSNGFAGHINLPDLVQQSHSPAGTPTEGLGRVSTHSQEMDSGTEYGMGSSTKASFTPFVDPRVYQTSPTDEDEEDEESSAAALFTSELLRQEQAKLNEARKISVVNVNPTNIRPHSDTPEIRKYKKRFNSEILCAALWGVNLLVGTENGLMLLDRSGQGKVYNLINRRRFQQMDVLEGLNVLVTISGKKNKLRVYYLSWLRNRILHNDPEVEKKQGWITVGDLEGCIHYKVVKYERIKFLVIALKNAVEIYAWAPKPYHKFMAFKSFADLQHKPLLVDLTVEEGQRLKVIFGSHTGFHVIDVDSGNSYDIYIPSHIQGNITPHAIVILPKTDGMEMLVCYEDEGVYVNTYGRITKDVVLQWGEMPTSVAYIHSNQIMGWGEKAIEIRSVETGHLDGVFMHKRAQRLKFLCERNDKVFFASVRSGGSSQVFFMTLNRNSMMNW
T25 sequence (Q9NYL2 whole entry): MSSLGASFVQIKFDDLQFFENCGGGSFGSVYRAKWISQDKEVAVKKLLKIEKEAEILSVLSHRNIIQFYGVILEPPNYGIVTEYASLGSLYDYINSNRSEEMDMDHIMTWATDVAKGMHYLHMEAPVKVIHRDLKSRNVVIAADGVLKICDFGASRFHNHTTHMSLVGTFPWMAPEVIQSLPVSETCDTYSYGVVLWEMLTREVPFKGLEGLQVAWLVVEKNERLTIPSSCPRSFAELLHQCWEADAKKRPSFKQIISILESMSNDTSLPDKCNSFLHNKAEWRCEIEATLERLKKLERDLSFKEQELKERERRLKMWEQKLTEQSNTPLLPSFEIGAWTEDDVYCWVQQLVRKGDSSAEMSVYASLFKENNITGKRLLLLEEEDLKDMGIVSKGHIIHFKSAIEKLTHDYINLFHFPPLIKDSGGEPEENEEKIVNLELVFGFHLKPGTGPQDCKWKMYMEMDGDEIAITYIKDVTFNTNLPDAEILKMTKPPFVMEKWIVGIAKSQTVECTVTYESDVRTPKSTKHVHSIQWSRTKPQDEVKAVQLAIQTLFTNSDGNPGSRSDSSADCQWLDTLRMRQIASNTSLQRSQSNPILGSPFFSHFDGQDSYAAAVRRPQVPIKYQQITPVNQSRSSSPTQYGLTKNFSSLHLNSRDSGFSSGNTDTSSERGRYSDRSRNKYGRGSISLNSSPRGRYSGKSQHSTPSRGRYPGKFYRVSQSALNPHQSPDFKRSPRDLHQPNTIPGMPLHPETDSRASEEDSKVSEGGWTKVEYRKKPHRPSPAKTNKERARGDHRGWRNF
T16 sequence (Q9NRM7 whole entry): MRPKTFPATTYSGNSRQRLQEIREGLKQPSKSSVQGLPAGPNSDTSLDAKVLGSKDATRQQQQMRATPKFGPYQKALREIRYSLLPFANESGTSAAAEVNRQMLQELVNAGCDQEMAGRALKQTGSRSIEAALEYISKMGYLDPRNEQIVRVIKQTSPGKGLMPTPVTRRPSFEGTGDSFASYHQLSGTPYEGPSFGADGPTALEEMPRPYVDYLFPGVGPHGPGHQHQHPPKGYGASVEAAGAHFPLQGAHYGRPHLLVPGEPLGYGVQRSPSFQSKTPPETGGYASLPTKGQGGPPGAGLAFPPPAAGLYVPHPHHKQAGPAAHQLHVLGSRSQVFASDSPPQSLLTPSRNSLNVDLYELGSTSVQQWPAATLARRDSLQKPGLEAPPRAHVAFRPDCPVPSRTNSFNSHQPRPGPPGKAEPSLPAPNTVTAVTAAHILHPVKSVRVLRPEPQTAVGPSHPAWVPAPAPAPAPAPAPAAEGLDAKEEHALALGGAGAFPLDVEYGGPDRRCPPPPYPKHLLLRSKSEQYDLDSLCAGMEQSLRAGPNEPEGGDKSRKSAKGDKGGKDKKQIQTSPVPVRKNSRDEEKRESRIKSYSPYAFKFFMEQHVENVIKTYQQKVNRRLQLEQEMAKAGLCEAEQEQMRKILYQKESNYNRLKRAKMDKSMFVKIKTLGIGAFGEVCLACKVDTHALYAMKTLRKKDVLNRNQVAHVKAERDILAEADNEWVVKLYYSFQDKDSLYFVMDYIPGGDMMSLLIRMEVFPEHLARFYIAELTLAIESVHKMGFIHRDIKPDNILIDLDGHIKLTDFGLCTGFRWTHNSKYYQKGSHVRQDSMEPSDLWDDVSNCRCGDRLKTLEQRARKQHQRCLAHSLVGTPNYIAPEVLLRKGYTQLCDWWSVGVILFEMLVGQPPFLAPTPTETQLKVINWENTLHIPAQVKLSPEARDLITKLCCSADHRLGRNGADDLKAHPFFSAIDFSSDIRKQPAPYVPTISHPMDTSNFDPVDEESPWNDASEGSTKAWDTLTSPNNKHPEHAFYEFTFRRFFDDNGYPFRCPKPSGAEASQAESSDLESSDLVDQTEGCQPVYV
T5 sequence (O75716 whole entry): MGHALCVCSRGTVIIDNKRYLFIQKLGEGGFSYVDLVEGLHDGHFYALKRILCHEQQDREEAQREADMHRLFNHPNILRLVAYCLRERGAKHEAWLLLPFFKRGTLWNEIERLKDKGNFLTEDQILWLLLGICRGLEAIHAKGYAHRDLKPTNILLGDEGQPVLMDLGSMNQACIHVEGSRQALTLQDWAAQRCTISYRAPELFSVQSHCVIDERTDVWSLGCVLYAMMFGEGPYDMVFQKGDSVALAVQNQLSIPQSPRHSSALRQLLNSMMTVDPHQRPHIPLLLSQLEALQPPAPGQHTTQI

Question: What does the source list for COc1ccc2[nH]c3c(=O)[nH]c4ccc(O)cc4c3c2c1 [Compound 55, 2-Hydroxy-10-methoxy-5,7-dihydro-6H-indolo[2,3-c]quinolin-6-one]?
Answer: Reduction of cell viability compared to the DMSO control [1]: ≥ 75%; inhibition at 1 µM (MAP2K1 (MEK1)): 98%; inhibition at 1 µM [2]: 18%; inhibition at 1 µM (WNK3): 2%; inhibition at 1 µM (AMPK (A1/B2/G1)): 86%; inhibition at 1 µM (STK16 (PKL12)): 51%; inhibition at 1 µM (MAPK8 (JNK1)): 43%; inhibition at 1 µM (RIPK2): 13%; inhibition at 1 µM (KIT T670E): 63%; inhibition at 1 µM (TESK2): 3%; inhibition at 1 µM (STK17B (DRAK2)): 93%; inhibition at 1 µM (EPHA7): 23%; inhibition at 1 µM (TNK2 (ACK)): 15%; inhibition at 1 µM (MAP4K3 (GLK)): 59%; inhibition at 1 µM (MAP3K10 (MLK2)): 20%; inhibition at 1 µM (AXL R499C): 35%; inhibition at 1 µM (RIPK3): -6%; inhibition at 1 µM (STK32C (YANK3)): 1%; inhibition at 1 µM (TAOK1): 35%; inhibition at 1 µM (KIT D816H): 80%; inhibition at 1 µM (ULK2): 25%; inhibition at 1 µM (LATS2): 82%; inhibition at 1 µM (ABL1 Q252H): 77%; inhibition at 1 µM (RET V804M): 88%; inhibition at 1 µM (TNIK): 61%; inhibition at 1 µM (MAPK10 (JNK3)): 29%; inhibition at 1 µM (MAP3K2 (MEKK2)): 42%; inhibition at 1 µM (ABL1 H396P): 61%; inhibition at 1 µM (KIT A829P): 76%; inhibition at 1 µM (ERN1): 16%; inhibition at 1 µM (TLK2): 88%; inhibition at 1 µM (CAMK2G (CaMKII gamma)): 30%; inhibition at 1 µM (ZAK): 4%; inhibition at 1 µM (MYLK (MLCK)): 60%; inhibition at 1 µM (BRSK2): 15%
